Biological target: T1, M-phase inducer phosphatase 2 (Homo sapiens, UniProt P30305)
T1 sequence (P30305 whole entry): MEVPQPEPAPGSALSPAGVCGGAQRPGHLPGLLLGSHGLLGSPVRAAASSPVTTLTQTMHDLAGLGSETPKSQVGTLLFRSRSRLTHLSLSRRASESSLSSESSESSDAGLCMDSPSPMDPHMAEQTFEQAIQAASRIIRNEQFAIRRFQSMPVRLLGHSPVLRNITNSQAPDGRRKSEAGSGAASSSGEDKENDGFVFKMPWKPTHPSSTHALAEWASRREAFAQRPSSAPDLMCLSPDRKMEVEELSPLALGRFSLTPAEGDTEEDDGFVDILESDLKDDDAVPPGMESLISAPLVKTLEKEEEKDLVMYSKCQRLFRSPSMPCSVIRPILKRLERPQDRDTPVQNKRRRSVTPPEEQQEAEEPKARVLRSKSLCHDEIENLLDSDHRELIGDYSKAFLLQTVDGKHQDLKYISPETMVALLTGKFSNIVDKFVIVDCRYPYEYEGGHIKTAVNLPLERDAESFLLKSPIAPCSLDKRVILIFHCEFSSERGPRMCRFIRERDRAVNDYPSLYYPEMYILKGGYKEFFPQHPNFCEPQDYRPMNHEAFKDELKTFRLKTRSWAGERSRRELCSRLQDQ
Assay: inhibition of Cdc25B dual-specificity phosphatase – biochemical, probe assessment, dose response (AID 676)

| Compound | IC50 [µM] |
| --- | --- |
| Cc1ccc(C)n1-c1cccc(C(=O)O)c1 | > 50 |
| O=C(Nc1ccc2nc(-c3ccco3)c(-c3ccco3)nc2c1)N1CCCCCC1 | 31.4 |
| Cc1ccc2c(c1C)NC(C(=O)O)C1CC=CC21 (stereo not drawn) | 15.9 |
| Cn1ncnc2c(=O)n(C)c(=O)nc1-2 | 0.396 |
| [O-]/[N+](=C\c1ccncc1)c1ccccc1 | > 50 |
| O=C1C=Cc2ccccc2C1=O [1,2-dihydronaphthalene-1,2-dione] | 19 |
| CCn1nc(-c2ccccc2)nc2c(=O)n(C)c(=O)nc1-2 [1-Ethyl-6-methyl-3-phenyl-1H-pyrimido[5,4-e][1,2,4]triazine-5,7-dione] | 0.447 |
| Cc1cc(C)n2c(SCC(=O)N3CCN(S(=O)(=O)c4ccc(Cl)cc4)CC3)nnc2n1 [1-[4-(4-chlorophenyl)sulfonyl-1-piperazinyl]-2-[(5,7-dimethyl-[1,2,4]triazolo[4,3-a]pyrimidin-3-yl)thio]ethanone] | > 50 |
| CCn1nc(-c2cccs2)nc2c(=O)n(C)c(=O)nc1-2 [1-ethyl-6-methyl-3-thiophen-2-yl-pyrimido[5,4-e][1,2,4]triazine-5,7-dione] | 0.552 |
| O=C(Nc1ccccc1)c1ccc2nc(-c3ccco3)c(-c3ccco3)nc2c1 [2,3-di-2-furyl-N-phenyl-6-quinoxalinecarboxamide] | 35.6 |
| CC(C)Cn1c(N)c(C(=O)COC(=O)c2cc(-c3ccco3)nc3ccccc23)c(=O)n(C)c1=O [2-(2-furanyl)-4-quinolinecarboxylic acid [2-[4-amino-1-methyl-3-(2-methylpropyl)-2,6-dioxo-5-pyrimidinyl]-2-oxoethyl] ester] | 46.6 |
| CCOc1ccc(-c2cc3nc(C4CCN(C(=O)OC(C)(C)C)CC4)c(C(=O)O)cn3n2)cc1 [2-(4-ethoxyphenyl)-5-[1-[(2-methylpropan-2-yl)oxy-oxomethyl]-4-piperidinyl]-6-pyrazolo[1,5-a]pyrimidinecarboxylic acid] | > 50 |
| COc1ccc(-c2cc3nc(C4CCN(C(=O)OC(C)(C)C)CC4)c(C(=O)O)cn3n2)cc1 [2-(4-methoxyphenyl)-5-[1-[(2-methylpropan-2-yl)oxy-oxomethyl]-4-piperidinyl]-6-pyrazolo[1,5-a]pyrimidinecarboxylic acid] | > 50 |
| CCn1c(SCC(=O)Nc2nc3ccc(OC)cc3s2)nc2c1c(=O)n(C)c(=O)n2C [2-(7-Ethyl-1,3-dimethyl-2,6-dioxo-2,3,6,7-tetrahydro-1H-purin-8-ylsulfanyl)-N-(6-methoxy-benzothiazol-2-yl)-acetamide] | > 50 |
| Cc1cccc(NC(=O)c2cc(NC(=O)C3CCCCC3C(=O)O)ccc2N2CCCCC2)c1 (stereo not drawn) [2-({[3-{[(3-methylphenyl)amino]carbonyl}-4-(1-piperidinyl)phenyl]amino}carbonyl)cyclohexanecarboxylic acid] | > 50 |
| Cc1ccc(/C=C/C2=Cc3c(sc(NC(=O)CSc4nnc(N)[nH]4)c3C#N)C(C)(C)C2)o1 [2-[(5-azanyl-1H-1,2,4-triazol-3-yl)sulfanyl]-N-[3-cyano-7,7-dimethyl-5-[(E)-2-(5-methylfuran-2-yl)ethenyl]-6H-1-benzothiophen-2-yl]ethanamide] | 46.9 |
| N#Cc1c(N)sc(=S)c2c1CCN(Cc1ccccc1)C2 [3-Amino-7-benzyl-1-thioxo-5,6,7,8-tetrahydro-1H-thiopyrano[3,4-c]pyridine-4-carbonitrile] | 4.99 |
| CCCSc1nnc(NC(=O)c2sc3nc(-c4cccs4)ccc3c2N)s1 [3-amino-N-(5-propylsulfanyl-1,3,4-thiadiazol-2-yl)-6-thiophen-2-ylthieno[2,3-b]pyridine-2-carboxamide] | > 50 |
| O=C1Nc2ccccc2SC(c2ccccc2)C1O (stereo not drawn) [3-hydroxy-2-phenyl-2,3-dihydro-1,5-benzothiazepin-4(5H)-one] | > 50 |
| COc1ccc(Br)cc1C=c1sc2nc(-c3ccco3)nn2c1=O [5-[(5-bromanyl-2-methoxy-phenyl)methylidene]-2-(furan-2-yl)-[1,3]thiazolo[3,2-b][1,2,4]triazol-6-one] | 14.8 |
| CCOc1cc(/C=C(/C#N)c2ccc(F)cc2)ccc1OCc1ccc(C(=O)O)o1 [5-[[4-[(E)-2-cyano-2-(4-fluorophenyl)ethenyl]-2-ethoxyphenoxy]methyl]furan-2-carboxylic acid] | > 50 |
| Cc1cccc(N2CCN(C(=O)Cc3c(C(=O)O)[nH]c4ccc(Cl)cc34)CC2)c1C [5-chloranyl-3-[2-[4-(2,3-dimethylphenyl)piperazin-1-yl]-2-oxidanylidene-ethyl]-1H-indole-2-carboxylic acid] | > 50 |

| Compound | IC50 [µM] |
| --- | --- |
| CCCCCNC(=O)c1ccc2c(=O)[nH]c3c(C(=O)NCC4CCCO4)sc(=S)n3c2c1 (stereo not drawn) [5-oxo-N3-(2-oxolanylmethyl)-N8-pentyl-1-sulfanylidene-4H-thiazolo[3,4-a]quinazoline-3,8-dicarboxamide] | > 50 |
| O=C(c1cccs1)c1no[n+]([O-])c1C(=O)c1cccs1 [(5-oxidanidyl-4-thiophen-2-ylcarbonyl-1,2,5-oxadiazol-5-ium-3-yl)-thiophen-2-yl-methanone] | > 50 |
| CCCCC[C@H](O)C=C[C@H]1C=CC(=O)[C@@H]1C/C=C\CCCC(=O)O [(Z)-7-[(1R,5S)-2-oxidanylidene-5-[(E,3S)-3-oxidanyloct-1-enyl]cyclopent-3-en-1-yl]hept-5-enoic acid] | > 50 |
| CC1=C(/C=C/C(C)=C/C=C/C(C)=C/C(=O)O)C(C)(C)CCC1 [ALL-TRANS-RETINOIC ACID] | > 50 |
| COCCCn1c(N)c(C(=O)NCCC(C)C)c2nc3ccccc3nc21 [MLS000041744] | > 50 |
| CCn1c(SCC(=O)Nc2ccc3c(c2)c2ccccc2n3CC)nnc1-c1ccco1 [MLS000050867] | 46.1 |
| COc1ccc(Cn2c(C)nc3c(c2=O)c2nc4ccccc4nc2n3Cc2ccco2)cc1 [MLS000079944] | 46.8 |
| Cc1ccc(-c2csc(NC(=O)c3ccno3)n2)cc1 [MLS000081820] | 35.8 |
| CC(C)Sc1nc2sc3c(c2c2nnc(SCC(=O)NCc4ccco4)n12)CCCC3 [MLS000082957] | > 50 |
| Cc1cc(NC(=O)c2ccc(S(=O)(=O)N3CCCC3)cc2)nc2c1c(=O)oc1ccccc12 [MLS000091355] | > 50 |
| FC(F)(F)c1ccc(N2CCOCC2)c(Nc2nc3ccccc3n3cnnc23)c1 [MLS000093276] | > 50 |
| COC(=O)c1ccccc1NC(=O)CN1C(=O)C2CCCN2c2ncc(Cl)cc21 (stereo not drawn) [MLS000094302] | > 50 |
| CCc1ccc(NC(=O)CSc2nc3ccccc3c(=O)n2CCN2CCOCC2)cc1 [MLS000095236] | > 50 |
| Cc1c(N=c2c(=O)c3ccccc3c2=O)c(=O)n(-c2ccccc2)n1C [MLS000105950] | 13.7 |
| CCOc1ccc2noc3c2c1C(=O)c1ccccc1-3 [MLS000106837] | > 50 |
| COc1ccc2noc3c2c1C(=O)c1ccccc1-3 [MLS000106874] | > 50 |
| CCOC(=O)c1ccc2c(c1)C1C=CCC1C(C(=O)O)N2 (stereo not drawn) [MLS-0025126.0001] | 18.2 |
| O=C(NC1(O)C(=O)c2ccccc2C1=O)c1ccccc1 [N-(2-hydroxy-1,3-dioxo-2-indenyl)benzamide] | 12.6 |
| O=C(OC1CCCCC1)c1ccc2c(c1)C1C=CCC1C(C(=O)O)N2 (stereo not drawn) [SMR000019385] | 9.6 |
| CCCCn1c(NC(=O)c2ccccc2)c(C#N)c2nc3ccccc3nc21 [SMR000060333] | 31.5 |
| N#Cc1c(N2CCCC2)nc(N)c2c(N)nc(N3CCCC3)cc12 [SMR000061605] | 21.2 |
